Assay results: US9090593B2, “Bicyclic compounds as Pim inhibitors” (AMGEN INC., priority 2010, dated 2015)
Read-outs that look alike come from different tables or passages of the source.

What was measured:
[1] = target: T1, full length recombinant Pim-1 protein (Homo sapiens, UniProt P11309); assay: Pim-1 enzyme assay (HTRF, phosphorylation of biotinylated-BAD (S112) peptide); assay type: biochemical; details: enzyme assay, Pim-1; read-out: Pim_1_IC50
T1 construct: by full length recombinant Pim-1, Pim-2, or Pim-3 protein; hexahistidine tag followed by a thrombin cleavage site (N); made in house; host or cells: Sf9 (baculovirus) or E. coli (pET28)
Summary of the method: (§1)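 Each full-length human Pim enzyme phosphorylates a biotinylated BAD (S112) peptide, and the product is sensed by Eu anti-phospho-BAD antibody with streptavidin-APC after quenching with 3 mM EDTA. Conditions: 60 mM Hepes pH 7.0, 0.05% BSA, 2 mM DTT.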

[2] = target: T2, full length recombinant Pim-3 protein (Homo sapiens, UniProt Q86V86); assay: Pim-3 enzyme assay (HTRF, phosphorylation of biotinylated-BAD (S112) peptide); assay type: biochemical; details: read-out: Pim3 IC50
T2 construct: by full length recombinant Pim-1, Pim-2, or Pim-3 protein; purchased Millipore (UK)
Summary of the method: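 HTRF read-out, streptavidin-APC plus Eu-labelled anti-phospho-BAD (S112) antibody, measures BAD peptide phosphorylation by full-length recombinant Pim-3. Buffer: 60 mM Hepes pH 7.0, 2 mM DTT, 0.05% BSA; EDTA (3 mM) stop. Percent of control per well, IC50 by 4-parameter logistic fit.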

[3] = target: T3, full length recombinant Pim-2 protein (Homo sapiens, UniProt Q9P1W9); assay: Pim-2 enzyme assay (HTRF, phosphorylation of biotinylated-BAD (S112) peptide); assay type: biochemical; details: enzyme assay, Pim-2; read-out: Pim2_IC50
T3 construct: by full length recombinant Pim-1, Pim-2, or Pim-3 protein; hexahistidine tag followed by a thrombin cleavage site (N); made in house; host or cells: Sf9 (baculovirus) or E. coli (pET28)
Summary of the method: as §1

[4] = target: T4, Pim-2 stably transfected into the U2OS human osteogenic sarcoma line (Homo sapiens, UniProt Q9P1W9); assay: Pim cell assay, phospho-BAD normalized against total BAD, U2OS stably transfected with Pim-2; assay type: cell-based; details: read-out: Pim2_Cell_IC50; further: high dose 31.6 µM
T4 construct: expressed in transfected cells; host or cells: U2OS human osteogenic sarcoma line
Summary of the method: (§2)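 Read-out is phospho-BAD relative to total BAD, by MSD electrochemiluminescence on lysates, expressed as % phosphoprotein = (2×phospho)/(phospho+total)×100. Engineered U2OS lines carrying stably transfected Pim-1 or Pim-2 received 10-point compound dilutions at 0.3% final DMSO after overnight culture at 37 °C; DMSO-only wells served as high control.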

[5] = target: T5, Pim-1 stably transfected into the U2OS human osteogenic sarcoma line (Homo sapiens, UniProt P11309); assay: Pim cell assay, phospho-BAD normalized against total BAD, U2OS stably transfected with Pim-1; assay type: cell-based; details: read-out: Pim1_Cell_IC50
T5 construct: expressed in transfected cells; host or cells: U2OS human osteogenic sarcoma line
Summary of the method: as §2

[6] = U2OS cells stably transfected with Pim-2, phospho-BAD, high dose […]
[7] = U2OS cells stably transfected with Pim-1, phospho-BAD, high dose […]

T3 sequence (Q9P1W9 whole entry): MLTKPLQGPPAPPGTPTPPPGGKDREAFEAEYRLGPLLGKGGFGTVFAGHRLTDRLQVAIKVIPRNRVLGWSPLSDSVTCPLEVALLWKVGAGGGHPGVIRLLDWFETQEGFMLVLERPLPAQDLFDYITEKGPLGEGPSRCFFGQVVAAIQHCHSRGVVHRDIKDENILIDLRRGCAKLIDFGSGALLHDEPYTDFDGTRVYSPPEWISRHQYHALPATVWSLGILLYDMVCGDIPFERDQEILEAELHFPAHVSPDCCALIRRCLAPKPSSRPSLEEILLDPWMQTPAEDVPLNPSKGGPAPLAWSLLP
T4 sequence (Q9P1W9 whole entry): as above
T5 sequence (P11309 whole entry): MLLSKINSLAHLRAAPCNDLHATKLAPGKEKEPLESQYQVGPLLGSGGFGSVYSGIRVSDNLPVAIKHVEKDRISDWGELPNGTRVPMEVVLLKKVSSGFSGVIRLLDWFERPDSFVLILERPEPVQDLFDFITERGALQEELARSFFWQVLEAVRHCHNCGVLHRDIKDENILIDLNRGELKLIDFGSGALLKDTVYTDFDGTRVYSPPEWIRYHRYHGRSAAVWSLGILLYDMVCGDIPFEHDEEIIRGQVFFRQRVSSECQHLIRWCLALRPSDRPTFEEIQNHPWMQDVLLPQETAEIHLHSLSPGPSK
T1 sequence (P11309 whole entry): as above

| Compound | IC50 [1] [µM] | IC50 [2] [µM] | IC50 [3] [µM] | IC50 [4] [µM] | IC50 [5] [µM] | IC50 [4, 6] [µM] | IC50 [5, 7] [µM] |
| --- | --- | --- | --- | --- | --- | --- | --- |
| CC(C)Oc1cncc(-c2ccc3[nH]cc(-c4cncc(O[C@@H]5CCCNC5)n4)c3c2)n1 [Example 213, 5-(6-(1-methylethoxy)-2-pyrazinyl)-3-(6-((3R)-3-piperidinyloxy)-2-pyrazinyl)-1H-indole] | 0.022 | 0.04 | 0.343 | 18.9 | 1.37 | – | – |
| CCCCNC(=O)c1ccc(F)c(-c2ccc3[nH]nc(-c4cncc(N5CCC(N)CC5)n4)c3c2)c1 [Example 38, 3-(3-(6-(4-amino-1-piperidinyl)-2-pyrazinyl)-1H-indazol-5-yl)-N-butyl-4-fluorobenzamide] | 0.007 | 0.003 | 0.009 | – | – | 4.74 | 1.21 |
| NC1CCCN(c2cncc(-c3c[nH]c4ccc(-c5c(F)cccc5F)cc34)n2)C1 (stereo not drawn) [Example 21, 1-(6-(5-(2,6-difluorophenyl)-1H-indol-3-yl)pyrazin-2-yl)piperidin-3-amine] | 0.003 | 0.005 | 0.098 | – | – | > 31.6 | 1.17 |
| CC(C)Nc1cncc(-c2n[nH]c3ccc(-c4c(F)cccc4F)cc23)n1 [Example 182, 6-(5-(2,6-difluorophenyl)-1H-indazol-3-yl)-N-(1-methylethyl)-2-pyrazinamine] | 0.04 | 0.049 | 0.556 | – | – | > 31.6 | 2.46 |
| COc1cncc(-c2ccc3[nH]nc(-c4cncc(O[C@@H]5CCCNC5)n4)c3c2)c1 [Example 114, 5-(5-methoxy-3-pyridinyl)-3-(6-((3R)-3-piperidinyloxy)-2-pyrazinyl)-1H-indazole] | 0.006 | 0.012 | 0.077 | – | – | 8.5 | 0.172 |
| Fc1cccc(F)c1-c1ccc2[nH]cc(-c3cncc(O[C@@H]4CCCNC4)n3)c2c1 [Example 23, (R)-5-(2,6-difluorophenyl)-3-(6-(piperidin-3-yloxy)pyrazin-2-yl)-1H-indole] | 0.002 | 0.004 | 0.009 | – | – | 5.04 | 0.228 |
| NC1CCN(c2cncc(-c3n[nH]c4ccc(-c5cccc(O)c5)cc34)n2)CC1 [Example 78, 3-(3-(6-(4-amino-1-piperidinyl)-2-pyrazinyl)-1H-indazol-5-yl)phenol] | 0.002 | 0.001 | 0.027 | – | – | 7.97 | 0.885 |
| Nc1ncc(-c2ccc3[nH]nc(-c4cncc(N5CCC(N)CC5)n4)c3c2)cn1 [Example 97, 5-(3-(6-(4-amino-1-piperidinyl)-2-pyrazinyl)-1H-indazol-5-yl)-2-pyrimidinamine] | 0.003 | 0.001 | 0.027 | – | – | > 31.6 | 3.03 |
| Cn1ccc2cc(-c3ccc4[nH]nc(-c5cncc(N6CCC(N)CC6)n5)c4c3)ccc2c1=O [Example 49, 6-(3-(6-(4-amino-1-piperidinyl)-2-pyrazinyl)-1H-indazol-5-yl)-2-methyl-1(2H)-isoquinolinone] | 0.007 | 0.007 | 0.072 | – | – | > 31.6 | 1.34 |
| Fc1cccc(F)c1-c1ccc2[nH]cc(-c3nccc(OC4CCNCC4)n3)c2c1 [Example 211, 5-(2,6-difluorophenyl)-3-(4-(4-piperidinyloxy)-2-pyrimidinyl)-1H-indole] | 0.086 | 0.061 | 0.445 | > 31.6 | 3.79 | – | – |
| NC1CCN(c2cncc(-c3n[nH]c4ccc(-c5ccccc5Cl)cc34)n2)CC1 [Example 83, 1-(6-(5-(2-chlorophenyl)-1H-indazol-3-yl)-2-pyrazinyl)-4-piperidinamine] | 0.01 | 0.004 | 0.034 | – | – | 22.1 | 1.42 |
| Nc1cc(-c2ccc3[nH]nc(-c4cncc(N5CCC(N)CC5)n4)c3c2)ccn1 [Example 100, 4-(3-(6-(4-amino-1-piperidinyl)-2-pyrazinyl)-1H-indazol-5-yl)-2-pyridinamine] | 0.001 | 0.002 | 0.018 | – | – | > 31.6 | 1.25 |
| NC1CCN(c2cncc(-c3n[nH]c4ccc(-c5cc(C(=O)NC6CC6)ccc5F)cc34)n2)CC1 [Example 3, 3-(3-(6-(4-aminopiperidin-1-yl)pyrazin-2-yl)-1H-indazol-5-yl)-N-cyclopropyl-4-fluorobenzamide] | 0.008 | 0.009 | 0.013 | – | – | 7.39 | 3.68 |
| COc1cc(-c2ccc3[nH]nc(-c4cncc(N5CCC(N)CC5)n4)c3c2)c(F)cn1 [Example 70, 1-(6-(5-(5-fluoro-2-methoxy-4-pyridinyl)-1H-indazol-3-yl)-2-pyrazinyl)-4-piperidinamine] | 0.005 | 0.004 | 0.018 | – | – | > 31.6 | 0.255 |
| Cn1c(=O)cc(-c2ccc3[nH]nc(-c4cncc(N5CCC(N)CC5)n4)c3c2)c2ccccc21 [Example 50, 4-(3-(6-(4-amino-1-piperidinyl)-2-pyrazinyl)-1H-indazol-5-yl)-1-methyl-2(1H)-quinolinone] | 0.024 | 0.021 | 0.47 | – | – | > 31.6 | 2.27 |
| CN(c1cncc(-c2n[nH]c3ccc(-c4c(F)cccc4F)cc23)n1)C1CCCNC1 (stereo not drawn) [Example 178, 6-(5-(2,6-difluorophenyl)-1H-indazol-3-yl)-N-methyl-N-3-piperidinyl-2-pyrazinamine] | 0.006 | 0.006 | 0.061 | – | – | 14.3 | 0.582 |
| NC1CCN(c2cncc(-c3n[nH]c4ccc(-c5ccc6ncsc6c5)cc34)n2)CC1 [Example 52, 1-(6-(5-(1,3-benzothiazol-6-yl)-1H-indazol-3-yl)-2-pyrazinyl)-4-piperidinamine] | 0.004 | 0.001 | 0.024 | – | – | 9.5 | 0.237 |
| COc1cccc(-c2ccc3[nH]nc(-c4cncc(N5CCC(N)CC5)n4)c3c2)c1 [Example 77, 1-(6-(5-(3-methoxyphenyl)-1H-indazol-3-yl)-2-pyrazinyl)-4-piperidinamine] | 0.006 | 0.003 | 0.07 | – | – | > 31.6 | 0.453 |
| c1cc2cc(-c3ccc4[nH]nc(-c5cncc(O[C@@H]6CCCNC6)n5)c4c3)cnc2[nH]1 [Example 121, 3-(6-((3R)-3-piperidinyloxy)-2-pyrazinyl)-5-(1H-pyrrolo[2,3-b]pyridin-5-yl)-1H-indazole] | 0.003 | 0.005 | 0.023 | – | – | 3.01 | 0.157 |
| NC1CCN(c2cncc(-c3n[nH]c4ccc(-c5ccc6nccnc6c5)cc34)n2)CC1 [Example 56, 1-(6-(5-(6-quinoxalinyl)-1H-indazol-3-yl)-2-pyrazinyl)-4-piperidinamine] | 0.002 | 0.001 | 0.015 | – | – | > 31.6 | 0.13 |
| NC1CCN(c2cncc(-c3n[nH]c4ccc(-c5cc6ccccc6nc5Cl)cc34)n2)CC1 [Example 48, 1-(6-(5-(2-chloro-3-quinolinyl)-1H-indazol-3-yl)-2-pyrazinyl)-4-piperidinamine] | 0.044 | 0.027 | 0.285 | – | – | > 31.6 | 1.11 |
| N[C@@H]1CCN(c2cncc(-c3c[nH]c4ccc(-c5c(F)cccc5F)cc34)n2)C1 [Example 212, (3R)-1-(6-(5-(2,6-difluorophenyl)-1H-indol-3-yl)-2-pyrazinyl)-3-pyrrolidinamine] | 0.015 | 0.018 | 0.185 | – | – | > 31.6 | 0.997 |
| CC(C)c1ccnc(-c2ccc3[nH]nc(-c4cncc(O[C@@H]5CCCNC5)n4)c3c2)n1 [Example 126, 5-(4-(1-methylethyl)-2-pyrimidinyl)-3-(6-((3R)-3-piperidinyloxy)-2-pyrazinyl)-1H-indazole] | 0.013 | 0.006 | 0.161 | – | – | > 31.6 | 0.563 |
| CC(C)Oc1cncc(-c2ccc3[nH]cc(-c4cncc(N(C)C)n4)c3c2)n1 [Example 230, N,N-dimethyl-6-(5-(6-(1-methylethoxy)-2-pyrazinyl)-1H-indol-3-yl)-2-pyrazinamine] | 0.089 | 0.05 | 2.36 | > 31.6 | 2.83 | – | – |
